# Measured values reported in ChEMBL document CHEMBL1150390, “Identification of halosalicylamide derivatives as a novel class of allosteric inhibitors of HCV NS5B polymerase” (Bioorg Med Chem Lett, 2008).
# Test system: Hepatitis C virus
# Experiment: Inhibition of HCV 1b NS5B polymerase
# Parameters: species or system Hepatitis C virus subtype 1b
row,IC50,SMILES
1,11 µM,O=C(Nc1ccc(Cl)cc1)c1cc(I)cc(I)c1O
2,46 µM,O=C(Nc1ccccc1)c1cc(I)cc(I)c1O
3,10 µM,O=C(Nc1ccc(Br)cc1)c1cc(I)cc(I)c1O
4,33 µM,O=C(Nc1ccc(F)cc1)c1cc(I)cc(I)c1O
5,37 µM,Cc1ccc(NC(=O)c2cc(I)cc(I)c2O)cc1
6,> 200 µM,CN(C(=O)c1cc(I)cc(I)c1O)c1ccc(Cl)c(Cl)c1
7,> 200 µM,COc1cc(Br)ccc1NC(=O)c1cc(Cl)cc(Cl)c1OC
8,9 µM,Cc1cc(NC(=O)c2cc(Cl)cc(Cl)c2O)ccc1Cl
9,108 µM,Cc1cc(NC(=O)c2cc(Cl)cc(Cl)c2N)ccc1Cl
10,6.9 µM,O=C(Nc1cccc(Br)c1)c1cc(Br)cc(Br)c1O
11,131 µM,Nc1c(Br)cc(Br)cc1C(=O)Nc1cccc(Br)c1
12,5.6 µM,O=C(Nc1ccc(Oc2ccccc2)cc1)c1cc(I)cc(I)c1O
13,30 µM,Nc1ccc(NC(=O)c2cc(I)cc(I)c2O)cc1
14,54 µM,O=C(Nc1ccc(O)cc1)c1cc(I)cc(I)c1O
15,46 µM,COc1ccc(NC(=O)c2cc(I)cc(I)c2O)cc1
16,1.9 µM,O=C(Nc1ccc(Nc2ccccc2)cc1)c1cc(I)cc(I)c1O
17,98 µM,Nc1c(Br)cc(Br)cc1C(=O)Nc1ccc(Br)cc1
18,8.8 µM,Oc1c(I)cc(I)cc1/C=N/c1ccc(Cl)cc1Cl
19,> 200 µM,COc1c(Cl)cc(Cl)cc1C(=O)Nc1ccc(Br)cc1
20,8.6 µM,O=C(Nc1ccc(Cl)cc1O)c1cc(I)cc(I)c1O
21,135 µM,CN(C(=O)c1cc(Br)cc(Br)c1O)c1ccc(Cl)cc1
22,> 200 µM,CC(=O)Oc1c(I)cc(I)cc1C(=O)Nc1ccc(Cl)c(Cl)c1
23,102 µM,Nc1c(Cl)cc(Cl)cc1C(=O)Nc1ccc(Cl)c(Cl)c1
24,4.7 µM,O=C(Nc1ccc(Cl)c(Cl)c1)c1cc(I)cc(I)c1O
25,8.6 µM,"O=C(Nc1ccc(Cl)c(Cl)c1)c1cc(Cl)cc(Cl)c1O [3,3',4',5-TETRACHLOROSALICYLANILIDE]"

row,SMILES,IC50
1,O=C(Nc1ccc(Br)cc1)c1cc(Br)cc(Br)c1O [TRIBROMSALAN],6.7 µM

# Target: not listed separately
# Experiment: Inhibition of HCV 3a NS5B polymerase
# Parameters: species or system Hepatitis C virus subtype 3a
row,IC50,SMILES
1,14.3 µM,O=C(Nc1ccc(Cl)c(Cl)c1)c1cc(I)cc(I)c1O

# Target: not listed separately
# Experiment: Inhibition of HCV 2a NS5B polymerase
# Parameters: species or system Hepatitis C virus subtype 2a
row,IC50,SMILES
1,16.2 µM,O=C(Nc1ccc(Cl)c(Cl)c1)c1cc(I)cc(I)c1O

# Target: Genome polyprotein (Hepatitis C virus genotype 1b (isolate BK) (HCV), UniProt P26663)
# Sequence (P26663 2420-3010 limits assumed): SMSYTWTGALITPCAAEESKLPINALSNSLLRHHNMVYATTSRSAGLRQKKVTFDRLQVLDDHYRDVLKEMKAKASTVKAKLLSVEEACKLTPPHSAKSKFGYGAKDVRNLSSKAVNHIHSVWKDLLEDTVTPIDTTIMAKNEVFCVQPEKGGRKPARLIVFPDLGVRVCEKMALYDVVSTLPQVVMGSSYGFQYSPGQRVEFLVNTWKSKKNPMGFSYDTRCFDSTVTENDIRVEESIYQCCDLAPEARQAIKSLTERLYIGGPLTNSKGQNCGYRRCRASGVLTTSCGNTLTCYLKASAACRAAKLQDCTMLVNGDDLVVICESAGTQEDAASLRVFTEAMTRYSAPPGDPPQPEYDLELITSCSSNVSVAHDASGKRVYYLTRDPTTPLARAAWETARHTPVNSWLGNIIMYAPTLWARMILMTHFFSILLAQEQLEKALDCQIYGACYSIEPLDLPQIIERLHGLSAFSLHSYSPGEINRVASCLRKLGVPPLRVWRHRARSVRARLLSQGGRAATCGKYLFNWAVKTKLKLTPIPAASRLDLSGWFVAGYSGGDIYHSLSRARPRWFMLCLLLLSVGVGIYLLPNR
# Experiment: Inhibition of HCV BK NS5B polymerase
row,IC50,SMILES
1,8.6 µM,O=C(Nc1ccc(Cl)c(Cl)c1)c1cc(I)cc(I)c1O

# Target: not listed separately
# Experiment: Inhibition of HCV 1a NS5B polymerase
# Parameters: species or system Hepatitis C virus subtype 1a
row,IC50,SMILES
1,5.7 µM,O=C(Nc1ccc(Cl)c(Cl)c1)c1cc(I)cc(I)c1O

# Target: not listed separately
# Experiment: Inhibition of HCV 2b NS5B polymerase
# Parameters: species or system Hepatitis C virus subtype 2b
row,IC50,SMILES
1,17.3 µM,O=C(Nc1ccc(Cl)c(Cl)c1)c1cc(I)cc(I)c1O
